Where a name gives a salt, the structure may show the parent alone.
Columns and labels:
[1] = test system: experimental autoimmune encephalomyelitis (EAE); test: In Vivo EAE Model of Multiple Sclerosis; parameters: species or system C57BL/6J mice; settings: Study 2, oral, amount approximately equimolar to 100 mg/kg DMF, 28 days
Procedure: For experimental autoimmune encephalomyelitis (EAE) study, 8- to 11-week-old C57BL/6J mice were anesthetized and subcutaneously injected with […] and […]. Pertussis toxin (200 ng/mouse) was applied i.p. on days 0. Daily clinical evaluation was performed via a 5-point scale, and the clinical progression was observed over 28 days (FIG. 2A). […] At the end of the study, flow cytometry analysis was performed on the spleen (n=8 per group). […] Statistical analysis was performed with GraphPad Prism (GraphPad Software). Unpaired t test was used to assess significance between the control (Vehicle) and each treatment group. For experimental autoimmune encephalomyelitis (EAE) studies, 8- to 11-week old C57BL/6J mice were anesthetized and subcutaneously injected with […] and […]. Pertussis toxin (200 ng/mouse) was applied intraperitoneally on day 0. Daily clinical evaluation as performed using a 5-point scale and the clinical progression was observed over 28 days (FIGS. 2C and 2D).

[2] = Stability of conjugates in Simulated Gastric Fluid (SGF); assay type: in vitro ADME; settings: SGF pH 1.6 with pepsin, 37° C., 1 μM compound
Method in brief: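 Compound at 1 μM (from 1 mM DMSO stock) in pH 1.6 NaCl medium with FaSSIF powder and 0.1 mg/mL pepsin, mixed at 37° C. Aliquots quenched with equal volume acetonitrile at T0 and regular intervals; LC/MS gives degradation rate.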

[3] = In vitro Colonic Material Stability Assay; assay type: in vitro ADME; settings: colonic material slurry in YCFAC media, anaerobic, 1 or 10 μM
Procedure: Assay 3. In vitro Colonic Material Stability Assay. This assay was used to assess the stability of a conjugate in a large intestine. All experiments were performed in an anaerobic chamber containing 90% nitrogen, 5% hydrogen and 5% carbon dioxide. Colonic material was resuspended as a slurry (15% w/v final concentration) in pre-reduced, anaerobically sterilized dilution blanks (Anaerobe Systems AS-908). The colonic material was then inoculated into 96 well plates containing YCFAC media (Anaerobe Systems AS-680) or other suitable media (6.7 μL slurry into 1 mL total media). Compounds or groups of compounds were added to each individual well to reach a final analyte concentration of 1 or 10 μM, and the material was mixed by pipetting. Sample was removed after set timepoints (0, 120, 240, 480, 1440, 2880 minutes after initiation of the assay), quenched with acetonitrile containing internal standard, and analyzed by LC/MS.

[4] = Stability of conjugates in Simulated Intestinal Fluid (SIF); assay type: in vitro ADME; settings: SIF pH 6.7 with pancreatin, 37° C., 1 μM compound
Method in brief: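 Compounds at 1 μM in fresh simulated intestinal fluid: FaSSIF powder in pH 6.7 phosphate buffer with pancreatin. Agitated at 37 °C; aliquots taken at T0 and regular intervals, quenched with 1 volume acetonitrile. Degradation rates determined by LC/MS.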

[5] = Gastrointestinal (GI) Exposure to Monomethylfumarate (MMF) (Study 2); assay type: in vivo, CD-1 mice; settings: mouse, samples of Study 1, single oral dose
Procedure: (§1) In order to measure propionate concentrations along the GI track, CD-1 mice were orally administered a single dose of deuterated sodium propionate, Compound 3 comprising deuterated propionate, or Compound 6 comprising deuterated propionate (Propionate-d3, Compound 3-d12, and Compound 6-d9, respectively; suspension, 1% (w/v) methyl cellulose in deionized water). The amounts of compound dosed were normalized to provide approximately equimolar amounts of […] (Propionate-d3 at 62 mg/kg, Compound 3-d12 at 110 mg/kg, and Compound 6-d9 at 91 mg/kg). […] Blood samples were collected in K2EDTA tubes and stored on wet ice no more than 30 min and then further processed to plasma. GI samples were placed into separate labeled, pre-weighted collection tubes and frozen before analysis. Brain samples were homogenized prior to analysis. Samples were subsequently worked up and analyzed by LC-MS/MS for deuterated propionate concentration. Propionate concentrations versus time for different tissues are depicted in FIGS. 4A-4H and 5A-5C.
Samples from Example 6, Study 1 were also analyzed by LC-MS/MS for monomethylfumarate concentrations. MMF concentrations versus time for different tissues are depicted in FIGS. 6A-6F.

[6] = Gastrointestinal (GI) Exposure to Propionate (Study 1); assay type: in vivo, CD-1 mice; settings: mouse; for Propionate-d3 AUClast / Propionate-d3 Tmax: single oral dose: Propionate-d3 62 mg/kg, Compound 3-d12 110 mg/kg, Compound 6-d9 91 mg/kg
Procedure: as §1

MIP-1α = test: Neutrophil Chemokine Production Assay: MIP-1α; assay type: cell-based; settings: human neutrophils, 12 h
Procedure: (§2) A volume 25 mL of human blood was layered over 15 mL of Histopaque®-1077 and centrifuged at 500 g, R^T, for 30 min with no break applied to the centrifuge. The PBMC band and Histopaque®-1077 layer were removed leaving behind the bottom red layer which was mixed with 40 mL of 1× red blood cell (RBC) lysis buffer (Sigma-Aldrich) was and split into two 50 mL tubes. The volume for both fractions was brought to 50 mL with RBC lysis buffer, mixed by inversion, and then incubated at RT for 10 min. Solutions were centrifuged at 250 g, for 10 min at RT and the supernatant liquids removed. The reddish pellets were re-suspended in 1 mL of RBC lysis buffer and combined. The cell suspension was incubated for 5 min at RT in RBC lysis buffer. After incubation 45 mL of Hanks Balanced Salt Solution with no calcium, magnesium or phenol red (HBSS—) was added, the cell suspension was spun (250 g for 10 min at RT), and supernatant liquids were removed. The white pellet was re-suspended in 1 mL of HBSS—, and cell counts were determined. The neutrophil cell suspension was brought to a concentration of 1.11e6 cells/mL in RPMI complete (Sigma-Aldrich), and 180 μL of cell suspension was transferred to all wells within a sterile 96-well tissue culture treated plate resulting in 2.0×10^5 cells/well. […] After incubation, 10 μL of 2 μg/mL LPS solution in RPMI complete was added to each well except for control wells, which received an additional 10 μL of media. Cells were incubated for 12 h (37° C., 5% CO2), after which plates were centrifuged at 250 g, RT, for 5 min and supernatant liquids were obtained and stored at −80° C. until analyzed via Luminex® Multiplex Assay for various chemokines and cytokines. Three data points were acquired from two different blood donors and averaged.

IL-8 = test: Neutrophil Chemokine Production Assay: IL-8; assay type: cell-based; settings: human neutrophils, 12 h
Procedure: as §2

MIP-1β = test: Neutrophil Chemokine Production Assay: MIP-1β; assay type: cell-based; settings: human neutrophils, 12 h
Procedure: as §2

CCC(=O)O[C@H]1[C@H](OC(=O)CC)[C@H](OC(=O)/C=C/C(=O)OC)O[C@@H](C)[C@H]1OC(=O)CC [Compound 1, Methyl ((2S,3S,4R,5R,6S)-6-methyl-3,4,5-tris(propionyloxy)tetrahydro-2H-pyran-2-yl) fumarate]
EAE score (5-point scale) compared to control (vehicle only) [1]: lower EAE scores
Assay 1 (SGF) (% Remaining @ 1 hour) [2]: C (C: >75% of the tested compound remaining)
Assay 3 (% Remaining at 24 h) [3]: C (C: >75% of the tested compound remaining)

CCC(=O)OC[C@H]1O[C@@H](OC(=O)/C=C/C(=O)OC)[C@H](OC(=O)CC)[C@@H](OC(=O)CC)[C@@H]1OC(=O)CC [Compound 3, Methyl ((2S,3R,4S,5R,6R)-3,4,5-tris(propionyloxy)-6-((propionyloxy)methyl)tetrahydro-2H-pyran-2-yl) fumarate]
EAE score (5-point scale) compared to control (vehicle only) [1]: lower EAE scores
EAE score (5-point scale) compared to mice treated with dimethyl fumarate [1]: lower or similar EAE scores
Assay 2 (SIF) (% @ Remaining 4 hours) [4]: B (B: 25-75% of the tested compound remaining)
Assay 1 (SGF) (% Remaining @ 1 hour) [2]: C (C: >75% of the tested compound remaining)
Assay 3 (% Remaining at 24 h) [3]: C (C: >75% of the tested compound remaining)

[2H]C([2H])([2H])CC(=O)OCC1OC(OC(=O)C=CC(=O)OC)C(OC(=O)CC([2H])([2H])[2H])C(OC(=O)CC([2H])([2H])[2H])C1OC(=O)CC([2H])([2H])[2H] (stereo not shown) [Compound 3-d12]
MMF AUClast ([5]; Cecum): 297 nmol·h/g
MMF Tmax ([5]; Cecum): 2.00 h
MMF AUClast ([5]; Distal Colon): 568 nmol·h/g
MMF Tmax ([5]; Distal Colon): 4.00 h
MMF AUClast ([5]; Distal Intestine): 156 nmol·h/g
MMF Tmax ([5]; Distal Intestine): 1.00 h
MMF AUClast ([5]; Proximal Colon): 465 nmol·h/g
MMF Tmax ([5]; Proximal Colon): 2.00 h
MMF AUClast ([5]; Proximal Intestine): 56.4 nmol·h/g
MMF Tmax ([5]; Proximal Intestine): 0.50 h
MMF AUClast ([5]; Stomach): 3180 nmol·h/g
MMF Tmax ([5]; Stomach): 1.00 h
Propionate-d3 AUClast ([6]; Brain): 1.18 nmol·h/g
Propionate-d3 Tmax ([6]; Brain): 0.25 h
Propionate-d3 AUClast ([6]; Cecum): 4010 nmol·h/g
Propionate-d3 Tmax ([6]; Cecum): 2.00 h
Propionate-d3 AUClast ([6]; Distal Colon): 2310 nmol·h/g
Propionate-d3 Tmax ([6]; Distal Colon): 4.00 h
Propionate-d3 AUClast ([6]; Distal Intestine): 3880 nmol·h/g
Propionate-d3 Tmax ([6]; Distal Intestine): 1.00 h
Propionate-d3 AUClast ([6]; Proximal Colon): 2910 nmol·h/g
Propionate-d3 Tmax ([6]; Proximal Colon): 2.00 h
Propionate-d3 AUClast ([6]; Proximal Intestine): 3160 nmol·h/g
Propionate-d3 Tmax ([6]; Proximal Intestine): 0.25 h
Propionate-d3 AUClast ([6]; Stomach): 4950 nmol·h/g
Propionate-d3 Tmax ([6]; Stomach): 1.00 h
region where the highest concentrations (Cmax) of propionate-d3 were observed ([6]; single oral dose, GI tissues): intestines (proximal and distal)

CCCC(=O)O[C@@H]1[C@@H](OC(=O)CCC)[C@H](C)O[C@@H](OC(=O)/C=C/C(=O)OC)[C@@H]1OC(=O)CCC [Compound 15, Methyl ((2S,3R,4R,5S,6S)-3,4,5-tris(butyryloxy)-6-methyltetrahydro-2H-pyran-2-yl) fumarate]
EAE score (5-point scale) compared to control (vehicle only) [1]: lower EAE scores
Assay 2 (SIF) (% @ Remaining 4 hours) [4]: A (A: <25% of the tested compound remaining)
Assay 1 (SGF) (% Remaining @ 1 hour) [2]: B (B: 25-75% of the tested compound remaining)
Assay 3 (% Remaining at 24 h) [3]: C (C: >75% of the tested compound remaining)

CCC(=O)O[C@@H]1[C@@H](OC(=O)CC)[C@H](OC(=O)/C=C/C(=O)OC)OC[C@H]1OC(=O)CC [Compound 20, Methyl ((2S,3R,4S,5R)-3,4,5-tris(propionyloxy)tetrahydro-2H-pyran-2-yl) fumarate]
EAE score (5-point scale) compared to control (vehicle only) [1]: lower EAE scores
Assay 2 (SIF) (% @ Remaining 4 hours) [4]: A (A: <25% of the tested compound remaining)
Assay 1 (SGF) (% Remaining @ 1 hour) [2]: C (C: >75% of the tested compound remaining)
Assay 3 (% Remaining at 24 h) [3]: C (C: >75% of the tested compound remaining)

CCCC(=O)O[C@H]1[C@H](OC(=O)/C=C/C(=O)OC)OC[C@@H](OC(=O)CCC)[C@H]1OC(=O)CCC [Compound 24, Methyl ((2S,3R,4R,5R)-3,4,5-tris(butyryloxy)tetrahydro-2H-pyran-2-yl) fumarate]
EAE score (5-point scale) compared to control (vehicle only) [1]: lower EAE scores
Assay 2 (SIF) (% @ Remaining 4 hours) [4]: A (A: <25% of the tested compound remaining)
Assay 1 (SGF) (% Remaining @ 1 hour) [2]: C (C: >75% of the tested compound remaining)

CC(O)CC(=O)O (stereo not drawn) [β-hydroxybutyric acid]
% MIP-1α (Vehicle + LPS = 100%) (MIP-1α; Conc. 200.0 μM): − (− = >90% Vehicle)
% MIP-1α (Vehicle + LPS = 100%) (MIP-1α; Conc. 2000.0 μM): ++ (++ = <70% Vehicle)
% IL-8 (Vehicle + LPS = 100%) (IL-8; Conc. 200.0 μM): − (− = >90% Vehicle)
% IL-8 (Vehicle + LPS = 100%) (IL-8; Conc. 2000.0 μM): + (+ = <90% Vehicle)
% MIP-1β (DMSO + LPS = 100%) (MIP-1β; Conc. 200.0 μM): + (+ = <90% Vehicle)
% MIP-1β (DMSO + LPS = 100%) (MIP-1β; Conc. 2000.0 μM): + (+ = <90% Vehicle)

Reference: US20210299079A1, “MONOMETHYL FUMARATE-CARRIER CONJUGATES AND METHODS OF THEIR USE” (Flagship Pioneering Innovations V, Inc., priority 2018, published 2021)
